From PMC11713942 (Therapeutic Advances in Infectious Disease, 2025)

Legend:
[1] = multilevel linear mixed model
Excerpt: In any complex structure, we can identify atomic units (in this case curves) and higher level unit (in this case patients). Treating patients as a random effect will correct standard errors and furnish an estimate of between-group variance. Introducing some covariate in a fixed part of the models helps to explain and so reduce unexplained between-group variance. Results are expressed as beta coefficient with their 95% confidence interval (95% CI) and presented with term-specific p values; the beta coefficient represents the mean variation of outcomes for unit change of quantitative predictors or between levels of categorical or ordinal predictors.
AUC0–24 determined on the fifth day of treatment, when the steady-state conditions were achieved, were calculated and compared between the two different groups of patients.

[2] = tested on: Staphylococcus spp. infective endocarditis; experiment: Microbiological and clinical response of Staphylococcus spp. infective endocarditis; format: in vivo, human; conditions: all patients, both dose groups
Protocol: The monocentric, prospective, cohort study was approved by the local ethics committee. […] All participants signed an informed consent form before the initiation of treatment and data/biological samples collection. […] Due to the COVID-19 pandemic, we could not completely fulfil the study design, and patients were treated with either 8–10 mg/kg (group A) or 11–12 mg/kg (group B), as per routine clinical treatment. In six patients, PK data relative to both doses are available, as per the initial protocol. […] Microbiological failure was defined by persistent or breakthrough infection during IE treatment.

[3] = cited from earlier work
[4] = Protocol: The monocentric, prospective, cohort study was approved by the local ethics committee. […] All participants signed an informed consent form before the initiation of treatment and data/biological samples collection. […] Due to the COVID-19 pandemic, we could not completely fulfil the study design, and patients were treated with either 8–10 mg/kg (group A) or 11–12 mg/kg (group B), as per routine clinical treatment. […] Microbiological failure was defined by persistent or breakthrough infection during IE treatment.
The occurrence of CK elevation above the normal value (>170 mU/mL) and eosinophilic pneumonia was evaluated.

clinical = conditions: human, in vivo; for half-life: Daptomycin t1/2 (elimination half-life), IV, 0.693/kel, median (IQR)
Protocol: Tubes were centrifuged at 10,400 rpm for at least 10 min at room temperature; separated plasma was then dispensed into polypropylene-labelled tubes and stored at −80°C until the bioanalysis was carried out. […] QcH (80 µg/mL), QcM (40 µg/mL) and QcL (4 µg/mL), by serial dilution in plasma. […] Just before the analysis, patient plasma samples were thawed, and calibrators and quality controls were prepared fresh in the same matrix. Each sample was processed by protein precipitation: 50 µL of plasma was prepared in pre-labelled Eppendorf tubes®. […] In total, 200 µL of the supernatant was transferred to HPLC vials, and 5 µL was injected into the chromatographic column. The HPLC system used was a Thermo Scientific quaternary pump® (Accela pump; Thermo Fisher Scientific, San Francisco, CA, USA) interfaced with an autosampler (Accela autosampler). […] From 3.10 to 4.50 min, the column was again equilibrated to the initial conditions. […] Xcalibur 2.07 and Lcquan2.5.6 software from Thermo Scientific (San Jose, CA, USA) were utilized for the LC-MS/MS system control, data acquisition and data analysis. Calibration curves were generated using weighted (1/x^2) linear regression curves.

For `CCCCCCCCCC(=O)N[C@@H](Cc1c[nH]c2ccccc12)C(=O)N[C@H](CC(N)=O)C(=O)N[C@@H](CC(=O)O)C(=O)N[C@@H]1C(=O)NCC(=O)N[C@@H](CCCN)C(=O)N[C@@H](CC(=O)O)C(=O)N[C@H](C)C(=O)N[C@@H](CC(=O)O)C(=O)NCC(=O)N[C@H](CO)C(=O)N[C@@H]([C@H](C)CC(=O)O)C(=O)N[C@@H](CC(=O)c2ccccc2N)C(=O)O[C@@H]1C` [Daptomycin, daptomycin], the MIC (Staphylococcus spp.) was < 0.5 µg/mL, the “Effect of gender on AUC0–24” value [1] was “gender did not affect the results” and the “Beta coefficient, association of AUC0–24 with dose group” value ([1]; 95% CI 64–483, p = 0.010) was 274. The “Breakthrough infections while on treatment” value [2] was “without evidence of breakthrough infections”, the Microbiologic response [2] was “All patients displayed a microbiologic response” and the “Survival at 30 days” value [2] was “All patients were alive”. For the same molecule, the “Increase of systemic exposure in elderly individuals (>75 years) compared with younger (18–30 years)” value [3] was 58%, the “Eosinophilic pneumonia during treatment” value ([4]; 8–12 mg/kg daily) was “none of the patients” and the “CK increase during treatment” value ([4]; in vivo) was “none of the patients”. For the same molecule, the “Dose linearity of pharmacokinetics” value (clinical) was “linear daptomycin pharmacokinetics”, the clearance (clinical; iv, Daptomycin CL) was 8.17 mL/min and the half-life (clinical; iv, group A 8–10 mg/kg daily, 15 patients) was 16.9 h. It also gave a half-life (clinical; iv, group B 11–12 mg/kg daily, 14 patients) of 15.1 h.
